Assay results as given in paper PMC6857582, “Characterization of aminopeptidase encoding gene anp-1 and its association with development in Caenorhabditis elegans” (PeerJ, 2019).

Tests used:
[1] = target: T1, rANP-1 (AlaNyl aminopeptidase 1) (Caenorhabditis elegans, UniProt Q22317); assay: p-nitroanilide release, absorbance at […] nm; assay type: biochemical; settings: refolded fragment
T1 construct: gene anp-1
T1 sequence (Q22317 93-559): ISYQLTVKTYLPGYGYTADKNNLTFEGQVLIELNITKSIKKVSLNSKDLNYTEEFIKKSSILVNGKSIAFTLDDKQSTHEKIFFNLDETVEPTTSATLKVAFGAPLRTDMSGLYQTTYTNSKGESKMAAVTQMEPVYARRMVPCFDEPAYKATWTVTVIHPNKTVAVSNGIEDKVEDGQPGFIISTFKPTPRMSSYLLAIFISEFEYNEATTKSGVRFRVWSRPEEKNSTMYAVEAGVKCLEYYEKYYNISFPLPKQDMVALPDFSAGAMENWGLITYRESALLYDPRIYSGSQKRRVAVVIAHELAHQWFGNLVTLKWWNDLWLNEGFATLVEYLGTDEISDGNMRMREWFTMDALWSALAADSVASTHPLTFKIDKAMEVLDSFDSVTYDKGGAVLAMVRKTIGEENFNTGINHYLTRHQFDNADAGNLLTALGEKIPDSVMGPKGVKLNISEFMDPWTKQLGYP

[2] = target: T1, rANP-1 (AlaNyl aminopeptidase 1); assay: L-Leu-pNA hydrolysis, absorbance at […] nm; assay type: biochemical; settings: inhibitor concentration not given; pre-incubation with inhibitor; substrate L-Leu-pNA; refolded fragment

Row | % reduction of activity [2] | SMILES | p-nitroanilide release, absorbance at 405 nm [1]
1 |  | CC(C)C[C@H](N)C(=O)Nc1ccc([N+](=O)[O-])cc1 [L-leucine-p-nitroanilide] | Aminopeptidase activity of rANP-1 protein was measured using L-Leu-pNA as substrate
2 | ~ 46% | CC(C)C[C@H](NC(=O)[C@@H](O)[C@H](N)Cc1ccccc1)C(=O)O [bestatin] | 
3 | ~ 55% | CC(C)C[C@@H](N)[C@H](O)C(=O)N[C@H](C(=O)N[C@H](C(=O)N[C@@H](CC(=O)O)C(=O)O)C(C)C)C(C)C [amastatin] | 
